Assay results from PubChem BioAssay AID248 (DTP/NCI, 2004).
Inconclusive results and toxic doses are left out. Rule as the data show it: active = T/C of 150% or more; inactive = T/C below 125%.

Tested on: L1210 leukemia ip in BDF1 mice, survival T/C
Test: NCI In Vivo Anticancer Drug Screen. Data for tumor model L1210 Leukemia (intraperitoneal) in B6D2F1 (BDF1) mice
Settings: endpoint: mean survival time, higher = longer survival
Method in brief: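 Transplanted-tumor mice were given test agent; controls received vehicle only. Survival readings from the two groups were divided (treated over control).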

[1] = dose: 100.0 mg/kg/injection, schedule: Q04DX002 (ip), vehicle: saline
[2] = dose: 200.0 mg/kg/injection, schedule: Q04DX002 (ip), vehicle: saline
[3] = dose: 400.0 mg/kg/injection, schedule: Q04DX002 (ip), vehicle: saline
[4] = dose: 50.0 mg/kg/injection, schedule: Q01DX001 (ip), vehicle: carboxymethylcellulose (CMC)
[5] = dose: 100.0 mg/kg/injection, schedule: Q01DX001 (ip), vehicle: carboxymethylcellulose (CMC)
[6] = dose: 200.0 mg/kg/injection, schedule: Q01DX001 (ip), vehicle: carboxymethylcellulose (CMC)
[7] = dose: 400.0 mg/kg/injection, schedule: Q01DX001 (ip), vehicle: carboxymethylcellulose (CMC)
[8] = dose: 100.0 mg/kg/injection, schedule: Q04DX003 (ip), vehicle: Klucel (hydroxypropylcellulose) (HPC)
[9] = dose: 200.0 mg/kg/injection, schedule: Q04DX003 (ip), vehicle: Klucel (hydroxypropylcellulose) (HPC)
[10] = dose: 400.0 mg/kg/injection, schedule: Q04DX003 (ip), vehicle: Klucel (hydroxypropylcellulose) (HPC)
[11] = dose: 50.0 mg/kg/injection, schedule: Q01DX001 (ip), vehicle: saline
[12] = dose: 100.0 mg/kg/injection, schedule: Q01DX001 (ip), vehicle: saline
[13] = dose: 100.0 mg/kg/injection, schedule: Q01DX009 (ip), vehicle: saline with Tween-80
[14] = dose: 100.0 mg/kg/injection, schedule: Q04DX003 (ip), vehicle: saline with Tween-80
[15] = dose: 200.0 mg/kg/injection, schedule: Q01DX009 (ip), vehicle: saline with Tween-80
[16] = dose: 200.0 mg/kg/injection, schedule: Q04DX003 (ip), vehicle: saline with Tween-80
[17] = dose: 400.0 mg/kg/injection, schedule: Q01DX009 (ip), vehicle: saline with Tween-80
[18] = dose: 400.0 mg/kg/injection, schedule: Q04DX003 (ip), vehicle: saline with Tween-80
[19] = dose: 100.0 mg/kg/injection, schedule: Q01DX009 (ip), vehicle: saline
[20] = dose: 200.0 mg/kg/injection, schedule: Q01DX009 (ip), vehicle: saline
[21] = dose: 400.0 mg/kg/injection, schedule: Q01DX009 (ip), vehicle: saline
[22] = dose: 100.0 mg/kg/injection, schedule: Q04DX003 (ip), vehicle: acetone
[23] = dose: 100.0 mg/kg/injection, schedule: Q04DX002 (ip), vehicle: Klucel (hydroxypropylcellulose) (HPC)
[24] = dose: 200.0 mg/kg/injection, schedule: Q04DX002 (ip), vehicle: Klucel (hydroxypropylcellulose) (HPC)

Measured: T/C

O=S(=O)(O)C(Cl)c1ccccc1 (centres undefined)
inactive: [1] 105 % of control | [2] 102 % of control | [3] 98 % of control

CN(C)N1C(=O)CC2(CCC(C(C)(C)C)CC2)CC1=O
inactive: [4] 109 % of control | [5] 95 % of control | [6] 104 % of control | [7] 104 % of control

O/N=C\c1cc2c3c(c1)CCCN3CCC2
inactive: dose: 100.0 mg/kg/injection, schedule: Q01DX009 (ip), vehicle: Klucel (hydroxypropylcellulose) (HPC) 95 % of control | dose: 200.0 mg/kg/injection, schedule: Q01DX009 (ip), vehicle: Klucel (hydroxypropylcellulose) (HPC) 91 % of control | dose: 400.0 mg/kg/injection, schedule: Q01DX009 (ip), vehicle: Klucel (hydroxypropylcellulose) (HPC) 86 % of control

O=C1NC(=O)C2(CCN(CC3COc4ccccc4O3)CC2)C(=O)N1 (centres undefined)
inactive: [8] 97 % of control | [9] 103 % of control | [10] 109 % of control

CCOP(=S)(S)OCC.[Pd]
inactive: dose: 12.5 mg/kg/injection, schedule: Q01DX009 (ip), vehicle: other 95 % of control | dose: 25.0 mg/kg/injection, schedule: Q01DX009 (ip), vehicle: other 95 % of control | [11] 96 % of control | [12] 100 % of control | dose: 200.0 mg/kg/injection, schedule: Q01DX001 (ip), vehicle: saline 100 % of control | dose: 400.0 mg/kg/injection, schedule: Q01DX001 (ip), vehicle: saline 100 % of control

O=C(CC(O)(C(F)(F)Cl)C(F)(F)Cl)c1cccs1
inactive: dose: 50.0 mg/kg/injection, schedule: Q04DX003 (ip), vehicle: saline with Tween-80 101 % of control | [13] 108 % of control | [14] 101 % of control | [15] 114 % of control | [16] 98 % of control | [17] 98 % of control | [18] 98 % of control

Cc1nccnc1S(=O)c1ccc(Br)cc1 (centres undefined)
inactive: dose: 100.0 mg/kg/injection, schedule: Q01DX001 (ip), vehicle: Klucel (hydroxypropylcellulose) (HPC) 98 % of control | dose: 200.0 mg/kg/injection, schedule: Q01DX001 (ip), vehicle: Klucel (hydroxypropylcellulose) (HPC) 95 % of control | dose: 400.0 mg/kg/injection, schedule: Q01DX001 (ip), vehicle: Klucel (hydroxypropylcellulose) (HPC) 92 % of control

O=C(Nc1cccc(C2=NCCN2)c1)c1cc(Cl)cc(C(=O)Nc2cccc(C3=NCCN3)c2)c1
inactive: dose: 7.0 mg/kg/injection, schedule: Q01DX Z (ip), vehicle: methylcellulose (MC) 92 % of control | dose: 11.0 mg/kg/injection, schedule: Q01DX Z (ip), vehicle: methylcellulose (MC) 100 % of control | dose: 16.0 mg/kg/injection, schedule: Q01DX Z (ip), vehicle: methylcellulose (MC) 87 % of control | dose: 25.0 mg/kg/injection, schedule: Q01DX Z (ip), vehicle: methylcellulose (MC) 97 % of control

COC(=O)CC1C(=O)C(C)(C(=O)OC)CCC1c1ccc(OC)cc1 (centres undefined)
inactive: [19] 96 % of control | dose: 100.0 mg/kg/injection, schedule: Q04DX003 (ip), vehicle: saline 100 % of control | [20] 90 % of control | dose: 200.0 mg/kg/injection, schedule: Q04DX003 (ip), vehicle: saline 94 % of control | [21] 93 % of control | dose: 400.0 mg/kg/injection, schedule: Q04DX003 (ip), vehicle: saline 94 % of control

CC(C)(Cc1ccccc1)NC(=O)NCCCl
inactive: [19] 97 % of control | [1] 93 % of control | [20] 91 % of control | [2] 96 % of control | [21] 108 % of control | [3] 96 % of control

Cc1ccc2cccc(CC(=O)O)c2c1
inactive: dose: 100.0 mg/kg/injection, schedule: Q01DX005 (ip), vehicle: saline with Tween-80 104 % of control | [13] 96 % of control | dose: 200.0 mg/kg/injection, schedule: Q01DX005 (ip), vehicle: saline with Tween-80 112 % of control | [15] 96 % of control | dose: 400.0 mg/kg/injection, schedule: Q01DX005 (ip), vehicle: saline with Tween-80 108 % of control | [17] 115 % of control

O=Nc1c(-c2c[nH]c3ccccc23)[nH]c2ccccc12
inactive: [11] 106 % of control | [12] 102 % of control

CCCCCCCCCCCCCCCCCCOC(C)OCCCCCCCCCCCCCCCCCC
inactive: [14] 89 % of control | [16] 89 % of control | [18] 87 % of control

O=c1oc(-c2ccccc2)ccc1-c1ccccc1
inactive: [8] 98 % of control | [9] 100 % of control | [10] 96 % of control

CC(C)(C)S(=O)(=O)c1nc2ccccc2s1
inactive: [8] 93 % of control | [9] 107 % of control | [10] 90 % of control

CC(C)c1ccc([N+](=O)[O-])cc1
inactive: [13] 96 % of control | [15] 106 % of control

O=C(/C=C/C(=O)Nc1cccc(C2=NCCN2)c1)Nc1cccc(C2=NCCN2)c1
inactive: dose: 3.75 mg/kg/injection, schedule: Q01DX Z (ip), vehicle: carboxymethylcellulose (CMC) 94 % of control | dose: 7.5 mg/kg/injection, schedule: Q01DX Z (ip), vehicle: carboxymethylcellulose (CMC) 94 % of control | dose: 15.0 mg/kg/injection, schedule: Q01DX Z (ip), vehicle: carboxymethylcellulose (CMC) 94 % of control

[N-]=[N+]=Nc1ccc(-c2nc(N)nc(N)n2)cc1
inactive: dose: 50.0 mg/kg/injection, schedule: Q01DX009 (ip), vehicle: saline 90 % of control | [19] 90 % of control | [22] 100 % of control | [20] 98 % of control | dose: 200.0 mg/kg/injection, schedule: Q04DX003 (ip), vehicle: acetone 97 % of control | dose: 400.0 mg/kg/injection, schedule: Q04DX003 (ip), vehicle: acetone 90 % of control

Cc1cc(C)nc(SCC(=O)O)n1
inactive: [4] 89 % of control | [5] 105 % of control | [6] 96 % of control | [7] 105 % of control

NCCC1=NCCN1
inactive: [23] 100 % of control | [24] 104 % of control | dose: 400.0 mg/kg/injection, schedule: Q04DX002 (ip), vehicle: Klucel (hydroxypropylcellulose) (HPC) 104 % of control

O=S(=O)(O)Cc1ccc(Cl)cc1Cl
inactive: [1] 95 % of control | [2] 103 % of control | [3] 116 % of control

Cc1ncc(CO)c(C2NOCc3ccc(Cl)cc32)c1O (centres undefined)
inactive: [22] 104 % of control

O=C(Nc1ccccc1)Oc1ccc(C2CCCCC2)cc1
inactive: [23] 93 % of control | [24] 121 % of control

c1cc[c]([Ge]([c]2ccccc2)[c]2ccccc2)cc1.c1ccc([Si](c2ccccc2)c2ccccc2)cc1
inactive: dose: 25.6 mg/kg/injection, schedule: Q04DX002 (ip), vehicle: saline with Tween-80 86 % of control | dose: 64.0 mg/kg/injection, schedule: Q04DX002 (ip), vehicle: saline with Tween-80 110 % of control | dose: 160.0 mg/kg/injection, schedule: Q04DX002 (ip), vehicle: saline with Tween-80 100 % of control | dose: 400.0 mg/kg/injection, schedule: Q04DX002 (ip), vehicle: saline with Tween-80 100 % of control

Cc1cc(N(C)C)c(C(C)C)cc1O (tested in a mixture with another compound)
inactive: dose: 3.2 micrograms/kg/injection, schedule: Q01DX009 (ip), vehicle: saline 95 % of control | dose: 6.3 micrograms/kg/injection, schedule: Q01DX009 (ip), vehicle: saline 90 % of control | dose: 12.5 micrograms/kg/injection, schedule: Q01DX009 (ip), vehicle: saline 105 % of control

CCCCCCCCCCCCCCP(I)(N(C)C)(N(C)C)N(C)C
inactive: dose: 0.78 mg/kg/injection, schedule: Q04DX002 (ip), vehicle: saline 107 % of control | dose: 1.56 mg/kg/injection, schedule: Q04DX002 (ip), vehicle: saline 113 % of control | dose: 3.13 mg/kg/injection, schedule: Q04DX002 (ip), vehicle: saline 113 % of control

CCC(Cl)COP(=O)(OCC(Cl)CC)OC(CC)P(=O)(OCC(Cl)CC)OCC(Cl)CC (centres undefined)
inactive: [8] 93 % of control | [9] 93 % of control | [10] 95 % of control
